Reference: ChEMBL document CHEMBL2440066, “Acidic biphenyl derivatives: synthesis and biological activity of a new series of potent 5-HT(4) receptor antagonists” (Bioorg Med Chem, 2013)

Key:
[1] = target: 5-hydroxytryptamine receptor 4 (Rattus norvegicus) (UniProt Q62758); test: Antagonist activity at 5-HT4 receptor in rat carbachol-contracted esophagus muscularis mucosae assessed as inhibition of 5-HT-induced relaxation
[2] = target: T1, Type-1 angiotensin II receptor (Homo sapiens, UniProt P30556); test: Displacement of [tyrosyl-3,5-3H]angiotensin-2 from AT1 receptor (unknown origin) expressed in QBI-HEK293A cells after 2 hrs; assay type: cell-based, HEK293-A
T1 sequence (P30556 whole entry): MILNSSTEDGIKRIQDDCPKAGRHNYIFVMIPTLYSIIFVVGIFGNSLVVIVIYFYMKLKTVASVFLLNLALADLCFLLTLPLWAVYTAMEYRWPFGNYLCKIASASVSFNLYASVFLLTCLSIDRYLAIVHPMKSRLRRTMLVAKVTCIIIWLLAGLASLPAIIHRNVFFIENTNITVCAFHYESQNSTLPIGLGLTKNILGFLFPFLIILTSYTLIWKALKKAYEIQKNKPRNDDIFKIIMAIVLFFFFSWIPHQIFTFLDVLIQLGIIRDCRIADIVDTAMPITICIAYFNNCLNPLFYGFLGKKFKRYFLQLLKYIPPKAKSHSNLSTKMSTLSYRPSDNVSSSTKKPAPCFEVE

[3] = target: T2, 5-hydroxytryptamine receptor 4 (Homo sapiens, UniProt Q13639); test: Antagonist activity at human 5HT4B receptor expressed in HEK293 cells assessed as inhibition of 5HT-stimulated adenylyl cyclase activity; assay type: functional, cell-based
[4] = target: T2, 5-hydroxytryptamine receptor 4; test: Displacement of [3H]GR113808 from human 5HT4B receptor expressed in HEK293 cells; assay type: cell-based
3T3-L1 = test: Cytotoxicity against mouse 3T3L1 cells assessed as cell death at 5 ug/ml after 72 hrs by neutral red assay; assay type: cell-based; details: 3t3-l1, 72 h
hERG (KCNH2) [5] = target: T3, hERG (KCNH2) (Homo sapiens, UniProt Q12809); test: Inhibition of human ERG expressed in HEK293 cells at 50 uM by patch-clamp technique; assay type: cell-based; details: HEK293 cells that express hERG
[6] = Apparent permeability of the compound in human Caco2 cells at 1 uM; assay type: ADME, cell-based; details: Caco-2
[7] = Octanol-buffer partition coefficient, log D of the compound at pH 7.4; assay type: physicochemical
[8] = target: Voltage-gated inwardly rectifying potassium channel KCNH2 (Homo sapiens, UniProt Q12809); test: Inhibition of human ERG expressed in HEK293 cells by patch-clamp technique; assay type: cell-based
[9] = target: 5-hydroxytryptamine receptor 4 (Cavia porcellus, UniProt O70528); test: Displacement of [125I]SB207710 from 5-HT4 receptor in guinea pig brain membranes; assay type: cell membranes, Membrane
[10] = target: T2, 5-hydroxytryptamine receptor 4; test: Displacement of [125I]SB207710 from human recombinant 5-HT4 receptor
[11] = target: 5-hydroxytryptamine receptor 4 (Rattus norvegicus) (UniProt Q62758); test: Antagonist activity at 5-HT4 receptor in rat esophagus assessed as inhibition of 5-HT-induced relaxation; assay type: tissue-based
hERG (KCNH2) [12] = target: T3, hERG (KCNH2); test: Inhibition of human ERG expressed in HEK293 cells at 100 uM by patch-clamp technique; assay type: cell-based; details: HEK293 cells that express hERG
Rattus norvegicus [13] = test: Elimination half life in Sprague-Dawley rat assessed as 4'-((4-(((3,4-Dihydro-2H-[1,3]oxazino[3,2-a]indole-10-carbonyl)oxy)methyl)piperidin-1-yl)methyl)[1,1'-biphenyl]-2-carboxylic acid level at 10 mg/kg, po; assay type: ADME, organism-based; parameters: dose 10 mg/kg, route oral; details: in vivo
Rattus norvegicus [14] = test: Tmax in Sprague-Dawley rat assessed as 4'-((4-(((3,4-Dihydro-2H-[1,3]oxazino[3,2-a]indole-10-carbonyl)oxy)methyl)piperidin-1-yl)methyl)[1,1'-biphenyl]-2-carboxylic acid level at 10 mg/kg, po; assay type: ADME, organism-based; parameters: dose 10 mg/kg, route oral; details: in vivo
Rattus norvegicus [15] = test: Cmax in Sprague-Dawley rat assessed as 4'-((4-(((3,4-Dihydro-2H-[1,3]oxazino[3,2-a]indole-10-carbonyl)oxy)methyl)piperidin-1-yl)methyl)[1,1'-biphenyl]-2-carboxylic acid level at 10 mg/kg, po; assay type: ADME, organism-based; parameters: dose 10 mg/kg, route oral; details: in vivo
Rattus norvegicus [16] = test: AUC (0 to infinity) in Sprague-Dawley rat assessed as 4'-((4-(((3,4-Dihydro-2H-[1,3]oxazino[3,2-a]indole-10-carbonyl)oxy)methyl)piperidin-1-yl)methyl)[1,1'-biphenyl]-2-carboxylic acid level at 10 mg/kg, po; assay type: ADME, organism-based, Plasma; parameters: time infinity, dose 10 mg/kg, route oral; details: in vivo
Rattus norvegicus [17] = test: AUC (0 to 6 hrs) in Sprague-Dawley rat assessed as 4'-((4-(((3,4-Dihydro-2H-[1,3]oxazino[3,2-a]indole-10-carbonyl)oxy)methyl)piperidin-1-yl)methyl)[1,1'-biphenyl]-2-carboxylic acid level at 10 mg/kg, po; assay type: ADME, organism-based, Plasma; parameters: time < 6 hr, dose 10 mg/kg, route oral; details: in vivo
[18] = Tmax in Sprague-Dawley rat at 10 mg/kg, po; assay type: ADME, organism-based; parameters: dose 10 mg/kg, route oral; details: in vivo
[19] = Cmax in Sprague-Dawley rat at 10 mg/kg, po; assay type: ADME, organism-based; parameters: dose 10 mg/kg, route oral; details: in vivo
[20] = AUC (0 to 6 hrs) in Sprague-Dawley rat at 10 mg/kg, po; assay type: ADME, organism-based; parameters: time < 6 hr, dose 10 mg/kg, route oral; details: plasma
hERG (KCNH2) [21] = target: T3, hERG (KCNH2); test: Inhibition of human ERG expressed in HEK293 cells at 10 uM by patch-clamp technique; assay type: cell-based; details: HEK293 cells that express hERG

T2 sequence (Q13639 whole entry): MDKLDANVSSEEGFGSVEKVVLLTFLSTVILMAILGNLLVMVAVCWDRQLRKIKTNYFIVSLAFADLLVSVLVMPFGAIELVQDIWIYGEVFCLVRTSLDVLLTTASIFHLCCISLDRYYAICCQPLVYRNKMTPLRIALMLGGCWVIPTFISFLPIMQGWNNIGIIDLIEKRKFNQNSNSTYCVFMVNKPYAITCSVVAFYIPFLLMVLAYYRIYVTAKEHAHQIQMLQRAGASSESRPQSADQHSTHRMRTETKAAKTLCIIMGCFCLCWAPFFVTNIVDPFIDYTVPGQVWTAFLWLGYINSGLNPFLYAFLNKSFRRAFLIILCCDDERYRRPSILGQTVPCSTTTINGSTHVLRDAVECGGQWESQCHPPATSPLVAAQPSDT
T3 sequence (Q12809 whole entry): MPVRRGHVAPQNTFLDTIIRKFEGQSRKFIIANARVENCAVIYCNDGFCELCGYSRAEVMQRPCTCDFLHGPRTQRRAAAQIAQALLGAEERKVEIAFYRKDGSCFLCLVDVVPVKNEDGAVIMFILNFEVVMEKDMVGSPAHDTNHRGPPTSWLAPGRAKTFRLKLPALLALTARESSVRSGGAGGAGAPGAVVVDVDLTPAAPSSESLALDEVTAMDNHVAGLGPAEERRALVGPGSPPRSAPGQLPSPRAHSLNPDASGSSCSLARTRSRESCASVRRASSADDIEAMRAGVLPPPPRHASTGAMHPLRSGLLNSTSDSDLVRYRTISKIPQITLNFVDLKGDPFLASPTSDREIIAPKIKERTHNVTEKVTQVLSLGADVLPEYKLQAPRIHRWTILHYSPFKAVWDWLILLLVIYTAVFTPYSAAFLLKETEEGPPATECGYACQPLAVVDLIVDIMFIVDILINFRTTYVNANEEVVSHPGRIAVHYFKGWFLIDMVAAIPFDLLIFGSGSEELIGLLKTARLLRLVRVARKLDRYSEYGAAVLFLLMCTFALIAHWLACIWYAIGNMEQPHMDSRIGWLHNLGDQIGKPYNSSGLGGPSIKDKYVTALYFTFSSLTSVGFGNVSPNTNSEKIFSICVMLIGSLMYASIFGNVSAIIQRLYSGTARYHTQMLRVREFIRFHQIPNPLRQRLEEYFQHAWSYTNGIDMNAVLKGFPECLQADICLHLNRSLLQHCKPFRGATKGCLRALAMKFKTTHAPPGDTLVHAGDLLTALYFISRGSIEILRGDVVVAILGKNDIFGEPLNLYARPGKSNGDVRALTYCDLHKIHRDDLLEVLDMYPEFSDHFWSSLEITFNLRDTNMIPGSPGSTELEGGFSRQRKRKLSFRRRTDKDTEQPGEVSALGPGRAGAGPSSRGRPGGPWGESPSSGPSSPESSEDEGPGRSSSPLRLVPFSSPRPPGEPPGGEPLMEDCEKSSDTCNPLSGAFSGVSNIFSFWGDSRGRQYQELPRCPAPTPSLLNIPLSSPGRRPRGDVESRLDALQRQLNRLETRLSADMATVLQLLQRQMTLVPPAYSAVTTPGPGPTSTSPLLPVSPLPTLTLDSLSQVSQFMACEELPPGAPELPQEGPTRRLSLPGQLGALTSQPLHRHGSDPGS
Chain of Voltage-gated inwardly rectifying potassium channel KCNH2 (Q12809 whole entry): as above
Chain of 5-hydroxytryptamine receptor 4 (Cavia porcellus, UniProt O70528) (O70528 whole entry): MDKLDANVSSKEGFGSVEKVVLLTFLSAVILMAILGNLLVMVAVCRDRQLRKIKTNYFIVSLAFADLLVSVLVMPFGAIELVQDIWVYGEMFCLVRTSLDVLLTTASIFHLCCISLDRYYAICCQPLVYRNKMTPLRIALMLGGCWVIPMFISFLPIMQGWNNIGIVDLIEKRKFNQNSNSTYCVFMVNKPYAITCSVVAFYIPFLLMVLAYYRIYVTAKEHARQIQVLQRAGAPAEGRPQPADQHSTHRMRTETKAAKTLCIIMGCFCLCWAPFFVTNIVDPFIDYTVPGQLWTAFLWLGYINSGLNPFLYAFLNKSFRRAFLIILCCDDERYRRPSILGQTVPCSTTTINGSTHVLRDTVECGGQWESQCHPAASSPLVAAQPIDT
Chain of 5-hydroxytryptamine receptor 4 (Rattus norvegicus) (Q62758 whole entry): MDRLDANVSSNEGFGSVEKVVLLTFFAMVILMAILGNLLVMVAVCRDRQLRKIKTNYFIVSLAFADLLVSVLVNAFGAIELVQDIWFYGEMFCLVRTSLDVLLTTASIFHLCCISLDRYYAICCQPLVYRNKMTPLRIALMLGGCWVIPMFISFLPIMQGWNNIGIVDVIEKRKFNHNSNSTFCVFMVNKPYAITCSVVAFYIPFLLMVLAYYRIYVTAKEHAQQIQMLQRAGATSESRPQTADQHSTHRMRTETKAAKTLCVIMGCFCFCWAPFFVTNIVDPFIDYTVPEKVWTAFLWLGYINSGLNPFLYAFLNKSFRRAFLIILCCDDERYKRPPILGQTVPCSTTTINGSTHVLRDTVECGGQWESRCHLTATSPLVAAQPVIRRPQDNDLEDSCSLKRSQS

## CCCCN1CCC(CCC(=O)c2cc(Cl)c(N)c3c2OCCO3)CC1
[1]
  pKb: 9.9

## O=C(NCC1CCN(Cc2ccc(-c3ccccc3-c3nnn[nH]3)cc2)CC1)c1c2n(c3ccccc13)CCCO2
[2]
  Ki: > 10000 nM
[3]
  pKb: 9.7
[4]
  Ki: 3.98 nM
3T3-L1
  Activity: 0%

## O=C(OCC1CCN(Cc2ccc(-c3ccccc3-c3nn[nH]n3)cc2)CC1)c1c2n(c3ccccc13)CCCO2
hERG (KCNH2) [5]
  inhibition at 50 µM: 35%
[6]
  Papp at 1 µM: 2.9 ×10⁻⁶ cm/s
[7]
  logD: 1.6
[2]
  Ki: > 10000 nM
[4]
  Ki: 2.51 nM
[8]
  IC50: 27500 nM
3T3-L1
  Activity: 0%

## Cn1cc(C(=O)OCC2CCN(CCNS(C)(=O)=O)CC2)c2ccccc21
[3]
  pKb: 8.7

## O=C(NCC1CCNCC1)c1c2n(c3ccccc13)CCCO2
[9]
  Ki: 63.1 nM
[10]
  Ki: 63.1 nM

## CC(O)CCN1CCC(CNC(=O)c2c3n(c4ccccc24)CCCO3)CC1 (stereo unspecified)
[9]
  Ki: 0.794 nM
[10]
  Ki: 0.794 nM

## CCCCN1CCC(CNC(=O)c2c3n(c4ccccc24)CCCO3)CC1 [PIBOSEROD]
[2]
  Ki: > 10000 nM
[3]
  pKb: 9.5
[9]
  Ki: 1.58 nM
[10]
  Ki: 1.58 nM

## Cc1noc(-c2ccc(F)cc2NC(=O)OCC2CCN(CCNS(C)(=O)=O)CC2)n1
[11]
  pKb: 8.9

## COc1ccc(CCCN2CCC(CCC(=O)c3cc(Cl)c(N)c4c3OCCO4)CC2)cc1
[1]
  pKb: 10.6

## CC(C)CCOC(=O)c1ccccc1-c1ccc(CN2CCC(COC(=O)c3c4n(c5ccccc35)CCCO4)CC2)cc1.CS(=O)(=O)O
[6]
  Papp at 1 µM: 5.4 ×10⁻⁶ cm/s
[7]
  logD: 4.9

## CC(=O)OCOC(=O)c1ccccc1-c1ccc(CN2CCC(COC(=O)c3c4n(c5ccccc35)CCCO4)CC2)cc1.CS(=O)(=O)O
[6]
  Papp at 1 µM: 1.4 ×10⁻⁶ cm/s
[7]
  logD: 4.5

## CCCCN1CCC(CNC(=O)c2c3n(c4cc(O)ccc24)CCCO3)CC1
[9]
  Ki: 794 nM
[10]
  Ki: 794 nM

## CS(=O)(=O)O.O=C(O)c1ccccc1-c1ccc(CN2CCC(COC(=O)c3c4n(c5ccccc35)CCCO4)CC2)cc1
hERG (KCNH2) [12]
  inhibition at 100 µM: 31%
[6]
  Papp at 1 µM: 0.8 ×10⁻⁶ cm/s
[7]
  logD: 1.3
[2]
  Ki: 1580 nM
[3]
  pKb: 9.8
[4]
  Ki: 0.0501 nM
[8]
  IC50: 47500 nM
3T3-L1
  Activity: 14%

## Cc1noc(-c2ccccc2NC(=O)OCC2CCN(CCNS(C)(=O)=O)CC2)n1
[11]
  pKb: 10.8

## COc1ccc(NC(=O)OCC2CCN(CCNS(C)(=O)=O)CC2)c(-c2nc(C)no2)c1
[11]
  pKb: 8.1

## CC(C)NCC(O)c1ccc(NS(C)(=O)=O)cc1 (stereo unspecified) [SOTALOL]
[6]
  Papp at 1 µM: 0.8 ×10⁻⁶ cm/s

## CS(=O)(=O)O.Cc1oc(=O)oc1COC(=O)c1ccccc1-c1ccc(CN2CCC(COC(=O)c3c4n(c5ccccc35)CCCO4)CC2)cc1
[6]
  Papp at 1 µM: 16.1 ×10⁻⁶ cm/s
[7]
  logD: 4.6

## Nc1c(Cl)cc(C(=O)CCC2CCN(CCCc3ccccc3)CC2)c2c1OCCO2
[1]
  pKb: 9.6

## CC(C)(C)C(=O)OCn1nnc(-c2ccccc2-c2ccc(CN3CCC(COC(=O)c4c5n(c6ccccc46)CCCO5)CC3)cc2)n1.CS(=O)(=O)O
[6]
  Papp at 1 µM: 5.1 ×10⁻⁶ cm/s
[7]
  logD: 4.3

## O=C(OCC1CCN(Cc2ccc(-c3ccccc3-c3nnn[nH]3)cc2)CC1)c1c2n(c3ccccc13)CCCO2
[3]
  pKb: 10.6

## CS(=O)(=O)NCCN1CCC(CCC(=O)c2cc(Cl)c(N)c3c2OCCO3)CC1
[1]
  pKb: 9.9

## CC(C)(C)C(=O)OCOC(=O)c1ccccc1-c1ccc(CN2CCC(COC(=O)c3c4n(c5ccccc35)CCCO4)CC2)cc1.CS(=O)(=O)O
[6]
  Papp at 1 µM: 9 ×10⁻⁶ cm/s
[7]
  logD: 4.7

## Cl.O=C(OCc1ccccc1)c1ccccc1-c1ccc(CN2CCC(COC(=O)c3c4n(c5ccccc35)CCCO4)CC2)cc1
[6]
  Papp at 1 µM: 1.1 ×10⁻⁶ cm/s
[7]
  logD: 5.1

## COC(=O)c1ccccc1-c1ccc(CN2CCC(CNC(=O)c3c4n(c5ccccc35)CCCO4)CC2)cc1
[2]
  Ki: > 10000 nM
[4]
  Ki: 0.0631 nM

## CCCCOC(=O)c1ccccc1-c1ccc(CN2CCC(COC(=O)c3c4n(c5ccccc35)CCCO4)CC2)cc1.CS(=O)(=O)O
Rattus norvegicus [13]
  beta t1/2: 9.92 h
Rattus norvegicus [14]
  Tmax: 2 h
Rattus norvegicus [15]
  Cmax: 10 ng/mL
Rattus norvegicus [16]
  AUC: 124 ng·h/mL
Rattus norvegicus [17]
  AUC: 39 ng·h/mL
[18]
  Tmax: 6 h
[19]
  Cmax: 80 ng/mL
[6]
  Papp at 1 µM: 13.9 ×10⁻⁶ cm/s
[7]
  logD: 4.9
[20]
  AUC(0-t) at 6 h: 313 ng·h/mL

## O=C(O)c1ccccc1-c1ccc(CN2CCC(CNC(=O)c3c4n(c5ccccc35)CCCO4)CC2)cc1
[2]
  Ki: > 10000 nM
[4]
  Ki: 0.631 nM

## COC(=O)c1ccccc1-c1ccc(CN2CCC(COC(=O)c3c4n(c5ccccc35)CCCO4)CC2)cc1.CS(=O)(=O)O
Rattus norvegicus [13]
  beta t1/2: 15.6 h
Rattus norvegicus [14]
  Tmax: 1 h
Rattus norvegicus [15]
  Cmax: 30 ng/mL
Rattus norvegicus [16]
  AUC: 542 ng·h/mL
Rattus norvegicus [17]
  AUC: 114 ng·h/mL
hERG (KCNH2) [21]
  inhibition at 10 µM: 2%
[18]
  Tmax: 2 h
[19]
  Cmax: 244 ng/mL
[6]
  Papp at 1 µM: 25 ×10⁻⁶ cm/s
[7]
  logD: 4.5
[2]
  Ki: > 10000 nM
[3]
  pKb: 10.6
[4]
  Ki: 0.00126 nM
[8]
  IC50: 131 nM
3T3-L1
  Activity: 75%
[20]
  AUC(0-t) at 6 h: 1110 ng·h/mL
